In ChEMBL document CHEMBL1201862, “PubChem BioAssay data set” (2004):
Active and inactive are the calls of the source.

Legend:
[1] = target: T1, Tyrosine-protein phosphatase non-receptor type 5 (Homo sapiens, UniProt P54829); test: STEP phosphatase inhibitors, confirmation, biochemical, fluorescence intensity, uHTS hits (AID 602372); assay type: functional; conditions: read-out: IC50_Mean
T1 sequence (P54829 whole entry): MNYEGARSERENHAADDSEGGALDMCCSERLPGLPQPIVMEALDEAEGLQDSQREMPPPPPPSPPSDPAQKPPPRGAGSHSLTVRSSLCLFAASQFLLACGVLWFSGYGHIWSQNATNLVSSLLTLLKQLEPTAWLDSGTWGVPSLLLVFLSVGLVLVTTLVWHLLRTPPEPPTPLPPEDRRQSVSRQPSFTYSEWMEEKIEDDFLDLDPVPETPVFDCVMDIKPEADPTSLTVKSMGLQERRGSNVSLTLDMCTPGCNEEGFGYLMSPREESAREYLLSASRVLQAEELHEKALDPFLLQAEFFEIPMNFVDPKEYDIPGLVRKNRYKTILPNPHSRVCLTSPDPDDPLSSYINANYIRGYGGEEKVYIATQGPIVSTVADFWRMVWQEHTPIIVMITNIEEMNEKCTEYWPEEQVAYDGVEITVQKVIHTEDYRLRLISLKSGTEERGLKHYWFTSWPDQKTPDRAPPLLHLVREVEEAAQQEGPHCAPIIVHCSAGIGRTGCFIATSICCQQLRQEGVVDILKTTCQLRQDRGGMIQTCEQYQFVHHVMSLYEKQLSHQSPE

[2] = target: T2, Tyrosine-protein phosphatase non-receptor type 11 (Homo sapiens, UniProt Q06124); test: SHP2 phosphatase inhibition, dose response, selectivity assay for STEP inhibitor project, biochemical (AID 602367); assay type: functional; conditions: read-out: IC50_Mean
T2 sequence (Q06124 whole entry): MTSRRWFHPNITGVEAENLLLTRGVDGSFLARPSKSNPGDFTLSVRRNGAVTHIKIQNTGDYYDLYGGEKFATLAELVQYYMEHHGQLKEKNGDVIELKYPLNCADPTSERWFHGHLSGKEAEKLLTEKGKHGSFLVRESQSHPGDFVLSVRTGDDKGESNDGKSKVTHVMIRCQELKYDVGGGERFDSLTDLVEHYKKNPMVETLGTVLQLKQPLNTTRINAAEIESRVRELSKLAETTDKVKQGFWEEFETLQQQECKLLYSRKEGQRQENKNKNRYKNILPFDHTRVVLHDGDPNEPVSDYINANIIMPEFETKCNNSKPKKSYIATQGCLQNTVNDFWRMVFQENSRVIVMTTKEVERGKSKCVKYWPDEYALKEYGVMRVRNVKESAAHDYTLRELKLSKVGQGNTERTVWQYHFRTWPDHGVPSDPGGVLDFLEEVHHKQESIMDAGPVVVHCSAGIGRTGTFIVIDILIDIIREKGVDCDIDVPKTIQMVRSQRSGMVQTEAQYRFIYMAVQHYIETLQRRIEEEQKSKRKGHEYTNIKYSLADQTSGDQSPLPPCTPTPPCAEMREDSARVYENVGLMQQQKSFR

[3] = target: Dual specificity protein phosphatase 3 (Homo sapiens, UniProt P51452); test: VHR phosphatase inhibition, dose response, selectivity assay for STEP inhibitor project, biochemical (AID 602374); assay type: functional; conditions: read-out: IC50_Mean
Chain of Dual specificity protein phosphatase 3 (P51452 whole entry, the tested form may be a part): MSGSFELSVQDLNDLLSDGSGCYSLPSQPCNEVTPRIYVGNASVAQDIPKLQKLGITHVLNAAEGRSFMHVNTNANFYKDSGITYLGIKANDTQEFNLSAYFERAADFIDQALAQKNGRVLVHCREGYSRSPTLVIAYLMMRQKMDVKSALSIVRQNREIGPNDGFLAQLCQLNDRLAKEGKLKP

[4] = target: T3, Carboxy-terminal domain RNA polymerase II polypeptide A small phosphatase 1 (Homo sapiens, UniProt Q9GZU7); test: inhibitors of CTDSP1, concentration-response testing, biochemical assay, absorbance-based, actives from ultra-high-throughput screening (AID 540297); assay type: functional
T3 sequence (Q9GZU7 whole entry): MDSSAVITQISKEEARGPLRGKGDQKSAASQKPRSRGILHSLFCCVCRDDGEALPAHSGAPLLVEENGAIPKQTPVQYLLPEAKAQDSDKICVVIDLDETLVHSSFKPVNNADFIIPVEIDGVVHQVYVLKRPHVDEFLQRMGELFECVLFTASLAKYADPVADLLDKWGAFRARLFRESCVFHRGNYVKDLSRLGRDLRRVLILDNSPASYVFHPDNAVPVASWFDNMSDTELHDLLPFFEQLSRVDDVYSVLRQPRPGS

Kallikrein-7 = Kallikrein-7 (Homo sapiens, UniProt P49862); test: Fluorescence Intensity-based biochemical primary high throughput dose response assay to identify activators of kallikrein-7 (K7) zymogen.
Chain of Kallikrein-7 (P49862 whole entry): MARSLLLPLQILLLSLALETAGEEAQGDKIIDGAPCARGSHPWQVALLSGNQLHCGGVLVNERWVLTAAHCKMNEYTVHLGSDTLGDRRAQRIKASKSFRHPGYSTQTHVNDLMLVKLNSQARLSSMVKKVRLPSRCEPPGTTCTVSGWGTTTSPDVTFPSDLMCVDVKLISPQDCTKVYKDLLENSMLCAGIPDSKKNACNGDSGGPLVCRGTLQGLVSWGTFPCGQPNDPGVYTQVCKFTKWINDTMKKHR

[5] = cytotoxicity in HPDE-C7 cells, cell-based, fluorescence, HTS (AID 430); assay type: functional; conditions: Homo sapiens
[6] = cytotoxicity in KRAS-transformed pancreatic duct cells, primary screen, cell-based, fluorescence, HTS (AID 431); assay type: functional; conditions: Homo sapiens;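 further: cell line used: HPDE-C7K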
cells [7] = assay type: functional, cell-based
[8] = target: T4, Trace amine-associated receptor 1 (Homo sapiens, UniProt Q96RJ0); test: Fluorescence-based cell-based high throughput dose response assay to identify agonists of the human trace amine associated receptor 1 (TAAR1).; assay type: functional
T4 sequence (Q96RJ0 whole entry): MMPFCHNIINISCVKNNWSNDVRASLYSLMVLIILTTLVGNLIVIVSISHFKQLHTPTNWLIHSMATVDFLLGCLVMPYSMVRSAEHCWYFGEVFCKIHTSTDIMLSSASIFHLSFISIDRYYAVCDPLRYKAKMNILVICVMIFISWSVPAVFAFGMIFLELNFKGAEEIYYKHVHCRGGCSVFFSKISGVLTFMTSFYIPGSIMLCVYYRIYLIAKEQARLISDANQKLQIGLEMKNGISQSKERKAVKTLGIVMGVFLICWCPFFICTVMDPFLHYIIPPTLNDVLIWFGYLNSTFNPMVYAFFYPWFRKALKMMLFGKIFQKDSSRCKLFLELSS

[9] = target: T4, Trace amine-associated receptor 1; test: Counterscreen for agonists of the human trace amine associated receptor 1 (hTAAR1): Fluorescence-based cell-based high throughput dose response assay to identify hTAAR1 agonist that also desensitize TAAR1 receptor response.; assay type: functional
cells [10] = assay type: functional, cell-based; remark: listed apart in the source
[11] = inhibitors of clade B AD8 Env fusion, dose response, cell-based, cherry-pick (AID 652062); assay type: functional;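 further: luciferase signal from cell-cell fusion driven by HIV-1 clade B AD8 Env; potency is for inhibitors of fusion seen as a drop in luminescence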
[12] = inhibitors of HIV Env-driven cell fusion, dose response, cherry-pick (AID 652057); assay type: functional, cell-based
[13] = off-target signal loss in HeLa-CEM21 co-culture – HeLa F-luc CTL cells, cherry-picked, counter-screen for HIV-1 Env fusion inhibitor project, dose response (AID 652040); assay type: functional, cell-based;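 further: potency for signal decrease marking cytotoxic or nonspecific inhibition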
[14] = ZM109 Env clade C HIV-1 fusion inhibitors, dose response, HeLa effector, CEM target cells, luciferase, cherry-pick (AID 652058); assay type: functional, cell-based

For `CC(C)(C)C(=O)Nc1ccc(C(=O)Nc2cccc(Oc3ccc(C(=O)O)c(C(=O)O)c3)c2)cc1`, which IC50 [1] is on record?
Its IC50 is 13.6 µM (active).

What about the IC50 [2] of the same compound?
Its IC50 is 16.5 µM (active).

What about the IC50 [3] of the same compound?
Its IC50 is 38.4 µM (inactive).

What does the source list for `O=C(COc1ccc([N+](=O)[O-])cc1)Nc1nnc(-c2cccnc2)s1`?
IC50 [4]: 5.51 µM (active); IC50 [1]: 59.9 µM (inactive); IC50 [2]: 2.44 µM (active); IC50 [3]: 4.25 µM (active)

With `CCN(CC)S(=O)(=O)c1cccc(-c2cn3cccnc3n2)c1` as the compound, how does the EC50 (Kallikrein-7) read?
Its EC50 is > 69.5 µM (inactive).

Which results are given for `O=C(CCN1CCc2ccccc2CC1)c1ccc2c(c1)OCCO2`?
EC50 [5]: 13.1 µM (active); EC50 [6]: 11.3 µM (active); IC50 (cells [7]): > 29.9 µM (inactive); EC50 [8]: 0.254 µM (active); IC50 [9]: 0.828 µM (active); EC50 (cells [10]): > 29.9 µM (inactive)

Which EC50 (Kallikrein-7) does the source give for `N=c1c(C(=O)NC2CCCC2)cc2c(=O)n3ccccc3nc2n1CC1CCCO1` (configuration not stated) here?
Its EC50 is 26.8 µM (inactive).

For `c1ccc2c(c1)CCN(c1nc3cc4c(cc3s1)OCO4)C2`, which IC50 (cells [7]) is on record?
The IC50 was > 29.9 µM (inactive).

What about the EC50 [8] of the same compound?
Its EC50 is 0.751 µM (active).

And the IC50 [9]?
Its IC50 is 2.96 µM (active).

What about the EC50 (cells [10]) of the same compound?
The EC50 was > 29.9 µM (inactive).

Which results are given for `CCOc1ccc(C(C)=O)cc1COC(=O)c1ccccc1C(=O)N(C)Cc1ccccc1`?
AC50 [11]: 6.39 µM (active); AC50 [12]: 3.55 µM (active); AC50 [13]: 5.14 µM (active); AC50 [14]: 4.87 µM (active)

Which results are given for `COc1cc(C(C)=O)ccc1OCC(O)CNCC(O)c1ccccc1` (configuration not stated)?
IC50 (cells [7]): > 29.9 µM (inactive); EC50 [8]: 2.13 µM (active); IC50 [9]: 12.3 µM (inactive); EC50 (cells [10]): > 29.9 µM (inactive)
